# ChEMBL document CHEMBL1201862, “PubChem BioAssay data set” (2004)
# Active and inactive are the calls of the source.
# Molecular target: T1, Rac GTPase-activating protein 1 (Homo sapiens, UniProt Q9H0H5)
# T1 sequence (Q9H0H5 whole entry): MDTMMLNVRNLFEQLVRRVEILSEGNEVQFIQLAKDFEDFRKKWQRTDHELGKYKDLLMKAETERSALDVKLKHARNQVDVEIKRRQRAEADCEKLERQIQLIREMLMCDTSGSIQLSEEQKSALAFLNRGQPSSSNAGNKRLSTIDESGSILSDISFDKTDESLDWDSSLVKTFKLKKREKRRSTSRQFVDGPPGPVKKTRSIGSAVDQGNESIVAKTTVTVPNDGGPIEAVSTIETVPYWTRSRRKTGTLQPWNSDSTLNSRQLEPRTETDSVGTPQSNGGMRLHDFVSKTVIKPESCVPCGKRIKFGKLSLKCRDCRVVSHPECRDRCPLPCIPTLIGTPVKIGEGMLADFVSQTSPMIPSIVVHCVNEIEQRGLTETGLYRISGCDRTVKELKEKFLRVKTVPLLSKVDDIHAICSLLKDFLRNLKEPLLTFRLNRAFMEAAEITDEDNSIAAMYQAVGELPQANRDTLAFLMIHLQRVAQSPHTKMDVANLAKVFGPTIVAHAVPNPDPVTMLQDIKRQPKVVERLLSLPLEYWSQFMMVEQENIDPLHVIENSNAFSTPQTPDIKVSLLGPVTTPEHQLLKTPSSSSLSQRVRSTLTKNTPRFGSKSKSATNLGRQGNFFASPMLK
# Assay: blockers of MgcRacGAP-driven Rac1 GTP hydrolysis – biochemical, ADP Hunter fluorescence, primary and confirmatory, confirmation (AID 624330)
# Type: functional
# Conditions: not given
row,SMILES,IC50
1,CC(C)C1=Nc2cccc3cccc(c23)N1,26.3 µM (active)

# System: not listed separately
# Assay: P. falciparum Dd2 growth inhibitors, dose response, SYBR Green, cherry-picked samples (AID 1159567)
# Type: functional, cell-based
# Conditions: not given
row,SMILES,AC50
1,O=C(C1CCC1)N1CC(=O)N2[C@H](CO)[C@@H](c3ccc(C#CCc4ccccc4)cc3)[C@@H]2C1,4.27 µM (active)
2,CCC(=O)N1CC2(CCN(Cc3ccc(Cl)cc3)CC2)c2c(n(C)c3cc(OC)ccc23)[C@@H]1CO,7.31 µM (active)
3,CN(C)C(=O)c1cccc(-c2ccc3c(c2)[C@H]2[C@H](CCN2C(=O)C2CC2)[C@@H](CO)N3)c1,17.5 µM (active)
4,CO[C@@H]1CN(C)C(=O)c2cc(NC(=O)C3CC3)ccc2OC[C@H](C)N(CC2CCCC2)C[C@H]1C,4.45 µM (active)
5,CC(C)(C)[S@@+]([O-])N1Cc2cc(C(=O)NC3CCC3)nc(-c3cccc(Br)c3)c2[C@H]1CCO,5.58 µM (active)
6,CCC(=O)N1CC2(C1)CN(Cc1cc(F)ccc1F)[C@H](CO)c1[nH]c3cc(OC)ccc3c12,5.73 µM (active)

# System: not listed separately
# Assay: Luminescence Cell-Based Dose Retest to Confirm Inhibitors of Cancer Stem Cells. [Related pubchem assays (depositor defined):AID2717, AID2721]
# Type: functional
# Conditions: Homo sapiens
row,SMILES,AC50
1,Nc1c(C(=O)Nc2ccccc2)c2nc3ccccc3nc2n1CCCN1CCOCC1,5.96 µM (active)

# Molecular target: T2, Short transient receptor potential channel 4 (Mus musculus, UniProt Q9QUQ5)
# T2 sequence (Q9QUQ5 whole entry): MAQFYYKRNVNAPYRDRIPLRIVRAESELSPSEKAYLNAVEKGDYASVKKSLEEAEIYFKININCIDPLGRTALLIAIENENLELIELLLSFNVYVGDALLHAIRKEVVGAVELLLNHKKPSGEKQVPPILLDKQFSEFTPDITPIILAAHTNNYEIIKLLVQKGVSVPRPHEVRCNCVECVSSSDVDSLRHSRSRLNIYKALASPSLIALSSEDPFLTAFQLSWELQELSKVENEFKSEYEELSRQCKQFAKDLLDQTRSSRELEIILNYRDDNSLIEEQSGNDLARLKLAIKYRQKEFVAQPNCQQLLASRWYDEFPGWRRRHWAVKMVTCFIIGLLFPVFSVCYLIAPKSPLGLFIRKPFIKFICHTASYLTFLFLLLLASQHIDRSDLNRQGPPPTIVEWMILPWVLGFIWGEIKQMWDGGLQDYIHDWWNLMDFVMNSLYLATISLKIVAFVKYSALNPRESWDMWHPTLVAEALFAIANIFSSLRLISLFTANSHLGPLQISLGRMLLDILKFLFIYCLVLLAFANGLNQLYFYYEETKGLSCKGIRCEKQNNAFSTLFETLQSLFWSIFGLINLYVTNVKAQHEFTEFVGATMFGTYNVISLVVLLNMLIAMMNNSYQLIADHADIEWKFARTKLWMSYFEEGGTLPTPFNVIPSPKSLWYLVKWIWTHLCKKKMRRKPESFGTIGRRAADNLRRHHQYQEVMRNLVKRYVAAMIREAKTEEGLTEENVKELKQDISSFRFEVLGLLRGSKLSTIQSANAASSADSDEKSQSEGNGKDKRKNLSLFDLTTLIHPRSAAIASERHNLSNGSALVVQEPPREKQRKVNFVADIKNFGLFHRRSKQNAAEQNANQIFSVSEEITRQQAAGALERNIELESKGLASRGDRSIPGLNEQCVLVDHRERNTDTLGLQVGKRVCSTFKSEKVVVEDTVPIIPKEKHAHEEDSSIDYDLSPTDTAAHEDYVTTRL
# Assay: block of DAMGO-driven TRPC4 calcium entry – cell-based, HEK293 TRPC4/mu-opioid, Fluo-4 calcium, dose response (AID 434942);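 also: potency of inhibitors blocking the TRPC4 calcium response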
# Type: functional
# Conditions: not given
row,SMILES,EC50
1,OC(COc1ccccc1)CN1C2=NCCCN2c2ccccc21 (centres undefined),13.3 µM (active)
2,CC(C)n1c(NCc2c[nH]c3ccccc23)nc2ccccc21,1.68 µM (active)
3,CC(C)C1=Nc2cccc3cccc(c23)N1,2.37 µM (active)
4,O=C(NCCCN1CCOCC1)c1ccc(NC(=O)C2COc3ccccc3O2)cc1 (centres undefined),15 µM (active)
5,Cc1ccc2cc(CN(CCN3CCOCC3)C(=O)NCc3ccccc3)c(O)nc2c1C,4.22 µM (active)
6,Cc1cccc(N(Cc2ccccc2)C(=O)CSC(C)C(=O)Nc2cc(C)on2)c1 (centres undefined),2.11 µM (active)
7,CCOc1ccc(CN2CCN(C(=O)c3ccccc3)CC2)cc1,6.68 µM (active)

# Molecular target: T3, Ubiquitin-conjugating enzyme E2 N (Homo sapiens, UniProt P61088);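 also: Dose-response confirmation in a TR-FRET assay detecting UBC13-driven polyubiquitin chain formation, inhibition measured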
# T3 sequence (P61088 whole entry): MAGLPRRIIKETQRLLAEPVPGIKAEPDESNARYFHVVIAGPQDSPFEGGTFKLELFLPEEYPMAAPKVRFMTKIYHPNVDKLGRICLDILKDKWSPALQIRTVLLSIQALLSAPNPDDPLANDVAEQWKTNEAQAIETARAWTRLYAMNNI
# Assay: not given
# Type: functional
# Conditions: not given
row,SMILES,IC50
1,CCC(=O)NC(=S)NNC(=O)c1ccc([N+](=O)[O-])cc1,> 20 µM (inactive)
2,O=C(CCc1ccccc1)NNC(=O)c1ccccn1,> 20 µM (inactive)
3,Nc1c(C(=O)Nc2ccccc2)c2nc3ccccc3nc2n1CCCN1CCOCC1,> 20 µM (inactive)
4,COc1ccc(Cl)cc1/C=N/NC(=O)c1c(-c2ccccc2)noc1C,> 20 µM (inactive)
